Data published in PMC10762035, “Molecular basis of human trace amine-associated receptor 1 activation” (Nature Communications, 2024).
Several values for one entry are separate records, joined by “and”; a condition that tells them apart may be missing. Identical values can stand only once. Counter-ions that a name gives are not always drawn.

Tests used:
hTA1 [1] = biological target: T1, hTA1 (Homo sapiens, UniProt Q96RJ0); assay: Screen of 89 aminergic compounds at 10 µM, cAMP accumulation in HEK293T cells; format: cell-based; conditions: for Luminescence for Screening Data: quadruplicate values, screen at 10 µM;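 as to all read-outs here: HEK293T cells co-transfected with hTA1 and GloSensor cAMP reporter, cAMP accumulation detected by luminescence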
T1 construct: expressed in transfected cells; host or cells: HEK293T
T1 sequence (Q96RJ0 1-339): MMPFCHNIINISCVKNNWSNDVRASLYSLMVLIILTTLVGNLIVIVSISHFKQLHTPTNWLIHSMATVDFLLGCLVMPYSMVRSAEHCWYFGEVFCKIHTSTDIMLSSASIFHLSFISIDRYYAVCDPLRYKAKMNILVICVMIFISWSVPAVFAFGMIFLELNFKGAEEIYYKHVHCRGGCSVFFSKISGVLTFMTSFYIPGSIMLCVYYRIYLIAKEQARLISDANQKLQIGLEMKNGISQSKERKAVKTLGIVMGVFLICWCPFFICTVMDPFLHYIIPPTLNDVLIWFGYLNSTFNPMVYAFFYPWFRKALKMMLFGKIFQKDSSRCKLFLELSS

hTA1 [2] = biological target: T1, hTA1; assay: GloSensor cAMP accumulation assay, concentration response, wild-type hTA1 in transfected HEK293T cells; format: cell-based; conditions: log[Compound], replicate wells;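 also: luminescence read after 30 min compound exposure at room temperature in cells preloaded with D-Luciferin, reflecting Gs-driven cAMP rise, efficacy scaled to the maximal β-PEA response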

Structure (SMILES): Cn1ccc2cc3c(cc21)CCN3C(=O)Nc1cccnc1 [SB206553]
- Luminescence for Screening Data (hTA1 [1]): 5.8 and 7.8 and 6.3

Structure (SMILES): COc1ccc(C(CN(C)C)C2(O)CCCCC2)cc1 (centres unmarked) [Venlafaxine]
- Luminescence for Screening Data (hTA1 [1]): 6.7 and 7 and 6 and 6.5

Structure (SMILES): CNc1cc(OC)c(C(=O)NC2CCN(Cc3ccccc3)C2C)cc1Cl (centres unmarked) [Nemonapride]
- Luminescence for Screening Data (hTA1 [1]): 5.7 and 7.5 and 7.3 and 6.6

Structure (SMILES): CC[C@@H](CO)NC(=O)[C@@H]1C=C2c3cccc4[nH]cc(c34)C[C@H]2N(C)C1 [Methylergonovine]
- Normalized Luminescence Counts for WT hTA1 (hTA1 [2]; M = -5): 45.3336 and 42.9514 and 53.7117 and 43.7792 and 37.0624 and 36.5834
- Normalized Luminescence Counts for WT hTA1 (hTA1 [2]; M = -5.522): 17.8708 and 18.4864 and 21.6449 and 29.4218 and 29.3534 and 29.1139
- Normalized Luminescence Counts for WT hTA1 (hTA1 [2]; M = -6): 12.9992 and 11.3664 and 9.546 and 15.3039 and 15.0416 and 13.8556
- Normalized Luminescence Counts for WT hTA1 (hTA1 [2]; M = -6.522): 6.093 and 6.147 and 6.254 and 7.082 and 6.8879 and 7.207
- Normalized Luminescence Counts for WT hTA1 (hTA1 [2]; M = -7): 4.514 and 3.604 and 5.103 and 3.125 and 3.353 and 3.387
- Normalized Luminescence Counts for WT hTA1 (hTA1 [2]; M = -7.522): 2.5066 and 3.845 and 3.203 and 2.03 and 1.87 and 2.201
- Normalized Luminescence Counts for WT hTA1 (hTA1 [2]; M = -8): 2.5869 and 2.4263 and 1.489 and 1.2088 and 1.368 and 1.722
- Normalized Luminescence Counts for WT hTA1 (hTA1 [2]; M = -8.522): 1.65 and 1.864 and 0.9274 and 1.414 and 1.14 and 1.916
- Normalized Luminescence Counts for WT hTA1 (hTA1 [2]; M = -9): 0.3385 and 0.4991 and -0.009489 and 1.152 and 1.026 and 0.8895
- Normalized Luminescence Counts for WT hTA1 (hTA1 [2]; M = -9.522): -0.06302 and -0.3842 and -0.8125 and 0.7184 and 0.4676 and 0.4447
- Normalized Luminescence Counts for WT hTA1 (hTA1 [2]; M = -10): -0.08979 and -0.3039 and -0.2504 and 0.2509 and 0.1026 and 0.2167
- Normalized Luminescence Counts for WT hTA1 (hTA1 [2]; M = -10.522): -0.3039 and -0.4645 and -0.2236 and 0.05702 and 0.03421 and -0.1026
- Normalized Luminescence Counts for WT hTA1 (hTA1 [2]; M = -11): 0.09758 and -0.2772 and 0.4723 and 0.1825 and -0.1939 and 0
- Normalized Luminescence Counts for WT hTA1 (hTA1 [2]; M = -11.522): 0.4188 and 0.74 and 0.6597 and 0.2395 and 0.7298 and 0.3877
- Normalized Luminescence Counts for WT hTA1 (hTA1 [2]; M = -12): 0.5794 and 0.8471 and 0.74 and 0.3079 and 0.2281 and 0.479
- Normalized Luminescence Counts for WT hTA1 (hTA1 [2]; M = -12.522): -0.4378 and 0.6865 and 0.7668 and 0.6272 and 0.479 and 0.1026

Structure (SMILES): COc1cccc([C@H](O)C2CCN(CCc3ccc(F)cc3)CC2)c1OC [MDL 100907]
- Luminescence for Screening Data (hTA1 [1]): 5.4 and 6.7 and 5.2 and 5.8

Structure (SMILES): O=C(CCCN1CCC2(CC1)C(=O)NCN2c1ccccc1)c1ccc(F)cc1 [Spiperone]
- Luminescence for Screening Data (hTA1 [1]): 6.2 and 8.3 and 7.1 and 6.7

Structure (SMILES): NCCc1ccccc1 [B-PEA]
- Luminescence for Screening Data (hTA1 [1]): 160.4 and 164.2 and 180.4 and 167

Structure (SMILES): CN1C[C@H](C(=O)N[C@]2(C)O[C@@]3(O)[C@@H]4CCCN4C(=O)[C@H](Cc4ccccc4)N3C2=O)C[C@@H]2c3cccc4[nH]cc(c34)C[C@H]21 [Dihydroergotamine mesylate]
- Luminescence for Screening Data (hTA1 [1]): 25.4 and 24.7 and 32.7 and 26.9

Structure (SMILES): NCCc1c[nH]c2ccc(O)cc12 [Serotonin Hydrochloride]
- Luminescence for Screening Data (hTA1 [1]): 29.3

Structure (SMILES): NCCc1c[nH]cn1 [histamine]
- increase of signal over DMSO-treated controls (hTA1 activation) (hTA1 [1]; 10 µM of compound, HEK293T, threshold log2-fold change of 2): ≥ 4 fold
- Luminescence for Screening Data (hTA1 [1]): 13.5 and 15.3 and 16.1 and 15.1

Structure (SMILES): CN1[C@@H](CC(=O)c2ccccc2)CCC[C@H]1C[C@H](O)c1ccccc1.CN1[C@@H](CC(=O)c2ccccc2)CCC[C@H]1C[C@H](O)c1ccccc1.O=S(=O)(O)O [Lobeline sulfate]
- Luminescence for Screening Data (hTA1 [1]): 7.2 and 5 and 5.7 and 5.4

Structure (SMILES): CC1CCN(CC[C@H]2CCCN2S(=O)(=O)c2cccc(O)c2)CC1 [SB269970]
- Luminescence for Screening Data (hTA1 [1]): 7.2 and 7 and 6.5

Structure (SMILES): CCN1CCC[C@H]1CNC(=O)c1c(O)c(Cl)cc(Cl)c1OC [Raclopride]
- Luminescence for Screening Data (hTA1 [1]): 4.1 and 6.9 and 6.4 and 5

Structure (SMILES): O=C1NCCN1CCN1CCC(c2cn(-c3ccc(F)cc3)c3ccc(Cl)cc23)CC1 [Sertindole]
- Luminescence for Screening Data (hTA1 [1]): 7.6 and 9 and 6.3

Structure (SMILES): O=C1Nc2ccc(Cl)cc2[C@@](C#CC2CC2)(C(F)(F)F)O1 [Evafirenz]
- Luminescence for Screening Data (hTA1 [1]): 3.7 and 4.1 and 4.4 and 4.6

Structure (SMILES): COc1cc(N)c(Cl)cc1C(=O)CCC1CCN(CCNS(C)(=O)=O)CC1.Cl [RS 67506 hydrochloride]
- Luminescence for Screening Data (hTA1 [1]): 5.6 and 9 and 4.8 and 5.5
